Data reported in PubChem BioAssay (NCI).
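1) Cells in 96-well plates. 2) Compound, 48 h, 5 concentrations. 3) Linear interpolation between surrounding doses. 4) Unreached endpoint = highest concentration. GI50: concentration for 50% inhibition of growth. TGI: concentration producing complete growth inhibition.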

What was measured:
Assay in all cases: NCI-60 cell line screen, 48 h; in the data active = GI50 below about 0.43 µM; inactive = the rest
[1] = system: SW-620 colon
[2] = system: SK-MEL-2 melanoma
[3] = system: COLO 205 colon
[4] = system: NCI-H23 lung
[5] = system: SN12C renal
[6] = system: OVCAR-8 ovarian
[7] = system: UO-31 renal
[8] = system: NCI-H226 lung
[9] = system: MDA-MB-231 breast
[10] = system: PC-3 prostate
[11] = system: OVCAR-3 ovarian
[12] = system: HCT-116 colon
[13] = system: HOP-62 NSCLC
[14] = system: SF-268 CNS
[15] = system: DU-145 prostate
[16] = system: MCF7 breast
[17] = system: 786-0 renal
[18] = system: CAKI-1 renal
[19] = system: LOX IMVI melanoma
[20] = system: ACHN renal
[21] = system: TK-10 renal
[22] = system: MDA-N
[23] = system: UACC-257 melanoma
[24] = system: MALME-3M melanoma
[25] = system: OVCAR-5 ovarian
[26] = system: NCI/ADR-RES ovarian
[27] = system: EKVX NSCLC
[28] = system: U251 CNS
[29] = system: BT-549 breast
[30] = system: SK-MEL-5 melanoma
[31] = system: A498 renal
[32] = system: SF-295 CNS
[33] = system: RXF 393 renal
[34] = system: IGROV1 ovarian
[35] = system: MDA-MB-435
[36] = system: HT29 colon
[37] = system: UACC-62 melanoma
[38] = system: HS 578T breast
[39] = system: KM12 colon
[40] = system: HCC-2998 colon
[41] = system: HOP-92 NSCLC
[42] = system: HCT-15 colon
[43] = system: CCRF-CEM leukemia
[44] = system: A549 NSCLC
[45] = system: NCI-H522 lung
[46] = system: SK-OV-3 ovarian
[47] = system: SK-MEL-28 melanoma
[48] = system: NCI-H460 lung
[49] = system: HL-60(TB) leukemia
[50] = system: M14 melanoma
[51] = system: OVCAR-4 ovarian
[52] = system: SNB-19 CNS
[53] = system: SR leukemia
[54] = system: T-47D breast
[55] = system: SNB-75 CNS
[56] = system: RPMI-8226 leukemia
[57] = system: K-562 leukemia
[58] = system: MOLT-4 leukemia
[59] = system: SF-539 CNS

c1ccc(CCNc2ccccn2)nc1
> 100 µM: TGI [1] | TGI [2] | TGI [3] | TGI [4] | TGI [5] | TGI [6] | TGI [7] | TGI [8] | TGI [9] | TGI [10] | TGI [11] | TGI [12] | TGI [13] | TGI [14] | TGI [15] | TGI [16] | TGI [17] | TGI [18] | TGI [19] | TGI [20] | TGI [21] | TGI [22] | TGI [23] | TGI [24] | TGI [25] | TGI [26] | TGI [27] | TGI [28] | TGI [29] | TGI [30] | TGI [31] | TGI [32] | TGI [33] | TGI [34] | TGI [35] | TGI [36] | TGI [37] | TGI [38] | TGI [39] | TGI [40] | TGI [41] | TGI [42] | TGI [43] | TGI [44] | TGI [45] | TGI [46] | TGI [47] | TGI [48] | TGI [49] | TGI [50] | TGI [51] | TGI [52]

CS(=O)(=O)CCNCc1nc(-c2ccc3ncnc(Nc4ccc(OCc5cccc(C(F)(F)F)c5)cc4)c3c2)cs1
inactive: GI50 [1] > 25 µM | GI50 [2] 8.7 µM | GI50 [3] > 23.9 µM | GI50 [4] 12.5 µM | GI50 [5] > 25 µM | GI50 [6] 11.1 µM | GI50 [7] > 22.6 µM | GI50 [8] > 25 µM | GI50 [9] 12.6 µM | GI50 [10] > 23.6 µM | GI50 [11] > 17.3 µM | GI50 [12] > 18.7 µM | GI50 [13] 5.5 µM | GI50 [14] 12.8 µM | GI50 [15] > 17.7 µM | GI50 [16] > 17.5 µM | GI50 [17] > 16.5 µM | GI50 [18] > 25 µM | GI50 [19] > 25 µM | GI50 [53] > 22.2 µM | GI50 [20] > 21.9 µM | GI50 [21] 1670 nM | GI50 [54] 5.42 µM | GI50 [23] > 25 µM | GI50 [24] 14 µM | GI50 [55] 4.86 µM | GI50 [25] > 25 µM | GI50 [26] > 25 µM | GI50 [27] > 20.4 µM | GI50 [56] > 25 µM | GI50 [28] 5.9 µM | GI50 [29] > 25 µM | GI50 [30] > 21.6 µM | GI50 [31] 4.1 µM | GI50 [32] 9.45 µM | GI50 [33] 5.57 µM | GI50 [34] 5.4 µM | GI50 [35] > 25 µM | GI50 [36] > 17.6 µM | GI50 [37] > 25 µM | GI50 [38] 9.11 µM | GI50 [39] > 25 µM | GI50 [40] > 25 µM | GI50 [41] 3.68 µM | GI50 [57] > 25 µM | GI50 [42] > 25 µM | GI50 [43] > 25 µM | GI50 [44] > 22 µM | GI50 [45] 9.13 µM | GI50 [46] 6.01 µM | GI50 [47] > 20.6 µM | GI50 [48] > 25 µM | GI50 [49] > 25 µM | GI50 [58] > 25 µM | GI50 [50] > 25 µM | GI50 [51] > 25 µM | GI50 [52] 11.1 µM | GI50 [59] > 25 µM
15.7 µM: TGI [55]
> 22.6 µM: TGI [28]
> 25 µM: TGI [1] | TGI [3] | TGI [4] | TGI [5] | TGI [6] | TGI [7] | TGI [8] | TGI [9] | TGI [10] | TGI [11] | TGI [12] | TGI [14] | TGI [15] | TGI [16] | TGI [17] | TGI [18] | TGI [19] | TGI [53] | TGI [20] | TGI [21] | TGI [54] | TGI [23] | TGI [24] | TGI [25] | TGI [26] | TGI [27] | TGI [56] | TGI [29] | TGI [30] | TGI [31] | TGI [32] | TGI [33] | TGI [34] | TGI [35] | TGI [36] | TGI [37] | TGI [38] | TGI [39] | TGI [40] | TGI [57] | TGI [42] | TGI [43] | TGI [44] | TGI [45] | TGI [47] | TGI [48] | TGI [49] | TGI [58] | TGI [50] | TGI [51] | TGI [52] | TGI [59]
15.8 µM: TGI [41]
> 22.1 µM: TGI [2]
> 21.6 µM: TGI [46]
12.9 µM: TGI [13]
